Assay results from ChEMBL document CHEMBL1131980, “New class of biphenylene dibenzazocinones as potent ligands for the human EP1 prostanoid receptor” (Bioorg Med Chem Lett, 1999).
pKi: −log10 of the molar value.

Columns and labels:
[1] = target: Prostaglandin E2 receptor EP2 subtype (Homo sapiens, UniProt P43116); assay: Affinity at human EP2 receptor.
[2] = target: T1, Prostaglandin E2 receptor EP3 subtype (Homo sapiens, UniProt P43115); assay: Affinity at human EP3 receptor.
T1 sequence (P43115 whole entry): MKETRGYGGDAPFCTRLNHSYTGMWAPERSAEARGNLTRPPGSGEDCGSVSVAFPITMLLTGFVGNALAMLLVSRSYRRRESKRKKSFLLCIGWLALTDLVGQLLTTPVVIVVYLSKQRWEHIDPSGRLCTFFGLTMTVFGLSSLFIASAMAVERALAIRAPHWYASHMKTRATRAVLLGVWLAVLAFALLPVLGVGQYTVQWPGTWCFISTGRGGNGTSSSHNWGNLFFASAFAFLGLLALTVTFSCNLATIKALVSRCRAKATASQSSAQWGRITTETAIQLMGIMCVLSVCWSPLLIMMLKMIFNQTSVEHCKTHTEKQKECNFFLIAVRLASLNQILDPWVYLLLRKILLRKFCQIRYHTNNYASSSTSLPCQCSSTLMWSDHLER

[3] = target: T2, Prostaglandin E2 receptor EP1 subtype (Homo sapiens, UniProt P34995); assay: Affinity at human EP1 receptor.
T2 sequence (P34995 whole entry): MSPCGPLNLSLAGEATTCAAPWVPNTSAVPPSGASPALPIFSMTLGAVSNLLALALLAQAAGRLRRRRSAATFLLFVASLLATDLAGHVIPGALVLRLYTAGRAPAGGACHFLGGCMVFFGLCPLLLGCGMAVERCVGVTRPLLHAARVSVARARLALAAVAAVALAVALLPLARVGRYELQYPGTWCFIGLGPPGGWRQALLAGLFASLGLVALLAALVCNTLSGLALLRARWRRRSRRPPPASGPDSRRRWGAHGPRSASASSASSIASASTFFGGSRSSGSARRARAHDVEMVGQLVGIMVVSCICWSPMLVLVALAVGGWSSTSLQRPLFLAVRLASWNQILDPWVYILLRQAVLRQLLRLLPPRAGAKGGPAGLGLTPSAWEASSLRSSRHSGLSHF

[4] = target: Prostaglandin E2 receptor EP4 subtype (Homo sapiens, UniProt P35408); assay: Affinity at human EP4 receptor.
[5] = Compound was evaluated for ratio of Ki's of EP3 and EP1
[6] = target: Prostaglandin F2-alpha receptor (Homo sapiens, UniProt P43088); assay: Compound was evaluated for its secondary binding affinity to human FP receptors by using Aequorin luminescence-based functional calcium assay
[7] = target: Prostacyclin receptor (Homo sapiens, UniProt P43119); assay: Compound was evaluated for its secondary binding affinity to human IP receptors by using Aequorin luminescence-based functional calcium assay
[8] = target: T3, Thromboxane A2 receptor (Homo sapiens, UniProt P21731); assay: Compound was evaluated for its secondary binding affinity to human TP receptors by using Aequorin luminescence-based functional calcium assay
T3 sequence (P21731 whole entry): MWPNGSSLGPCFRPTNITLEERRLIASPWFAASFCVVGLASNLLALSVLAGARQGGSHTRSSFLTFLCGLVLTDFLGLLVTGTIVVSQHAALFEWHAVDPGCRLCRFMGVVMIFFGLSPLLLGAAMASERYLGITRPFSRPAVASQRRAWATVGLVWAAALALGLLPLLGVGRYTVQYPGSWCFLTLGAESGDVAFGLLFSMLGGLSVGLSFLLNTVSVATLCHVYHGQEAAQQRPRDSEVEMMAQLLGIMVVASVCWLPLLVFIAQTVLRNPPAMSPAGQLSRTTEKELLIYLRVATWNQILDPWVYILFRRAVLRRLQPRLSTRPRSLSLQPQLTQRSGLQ

[9] = target: T4, Prostaglandin D2 receptor (Homo sapiens, UniProt Q13258); assay: Compound was evaluated for its secondary binding affinity to human DP receptors by using Aequorin luminescence-based functional calcium assay
T4 sequence (Q13258 whole entry): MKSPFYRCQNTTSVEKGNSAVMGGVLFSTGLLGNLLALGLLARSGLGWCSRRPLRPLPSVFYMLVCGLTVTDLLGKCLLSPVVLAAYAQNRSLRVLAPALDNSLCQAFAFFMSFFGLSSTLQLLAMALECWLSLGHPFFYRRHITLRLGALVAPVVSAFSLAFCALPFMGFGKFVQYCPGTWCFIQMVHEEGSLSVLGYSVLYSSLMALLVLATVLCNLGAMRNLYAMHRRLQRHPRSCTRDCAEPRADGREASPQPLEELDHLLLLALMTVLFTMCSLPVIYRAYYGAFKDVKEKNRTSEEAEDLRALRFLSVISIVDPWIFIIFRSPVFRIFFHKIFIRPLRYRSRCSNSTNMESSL

Chain of Prostaglandin E2 receptor EP2 subtype (P43116 whole entry): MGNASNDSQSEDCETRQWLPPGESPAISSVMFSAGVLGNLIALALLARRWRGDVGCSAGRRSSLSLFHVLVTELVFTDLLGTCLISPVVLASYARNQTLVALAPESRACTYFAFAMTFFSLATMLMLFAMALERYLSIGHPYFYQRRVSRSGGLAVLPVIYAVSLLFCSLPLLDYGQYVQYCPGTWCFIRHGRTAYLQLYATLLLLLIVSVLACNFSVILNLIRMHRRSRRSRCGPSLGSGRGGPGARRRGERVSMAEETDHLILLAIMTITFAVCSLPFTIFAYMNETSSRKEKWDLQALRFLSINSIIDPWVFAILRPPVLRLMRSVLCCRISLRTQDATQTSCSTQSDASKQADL
Chain of Prostaglandin E2 receptor EP4 subtype (P35408 whole entry): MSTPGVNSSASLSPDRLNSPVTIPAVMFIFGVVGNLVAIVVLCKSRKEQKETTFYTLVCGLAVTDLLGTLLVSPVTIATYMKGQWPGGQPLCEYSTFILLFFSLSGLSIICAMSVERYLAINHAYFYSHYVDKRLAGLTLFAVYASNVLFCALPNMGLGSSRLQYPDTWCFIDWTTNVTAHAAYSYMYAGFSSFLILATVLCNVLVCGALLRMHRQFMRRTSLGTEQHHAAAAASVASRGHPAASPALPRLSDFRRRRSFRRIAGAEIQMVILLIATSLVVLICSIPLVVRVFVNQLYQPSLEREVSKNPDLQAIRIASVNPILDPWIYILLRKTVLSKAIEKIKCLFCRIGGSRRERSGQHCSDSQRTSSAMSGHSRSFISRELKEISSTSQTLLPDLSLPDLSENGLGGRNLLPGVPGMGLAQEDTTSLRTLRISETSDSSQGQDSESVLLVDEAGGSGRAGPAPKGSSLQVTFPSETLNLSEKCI
Chain of Prostacyclin receptor (P43119 whole entry): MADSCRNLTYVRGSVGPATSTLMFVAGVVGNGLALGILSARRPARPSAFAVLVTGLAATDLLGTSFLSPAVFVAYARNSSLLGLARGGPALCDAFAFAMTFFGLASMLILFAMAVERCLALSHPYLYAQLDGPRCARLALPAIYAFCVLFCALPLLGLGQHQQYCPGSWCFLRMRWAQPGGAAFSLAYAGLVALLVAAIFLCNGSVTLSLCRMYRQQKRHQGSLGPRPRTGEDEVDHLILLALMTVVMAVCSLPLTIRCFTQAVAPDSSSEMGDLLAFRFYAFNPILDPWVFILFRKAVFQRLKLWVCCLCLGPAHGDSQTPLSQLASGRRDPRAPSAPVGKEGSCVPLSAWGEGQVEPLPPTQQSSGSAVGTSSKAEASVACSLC
Chain of Prostaglandin F2-alpha receptor (P43088 whole entry): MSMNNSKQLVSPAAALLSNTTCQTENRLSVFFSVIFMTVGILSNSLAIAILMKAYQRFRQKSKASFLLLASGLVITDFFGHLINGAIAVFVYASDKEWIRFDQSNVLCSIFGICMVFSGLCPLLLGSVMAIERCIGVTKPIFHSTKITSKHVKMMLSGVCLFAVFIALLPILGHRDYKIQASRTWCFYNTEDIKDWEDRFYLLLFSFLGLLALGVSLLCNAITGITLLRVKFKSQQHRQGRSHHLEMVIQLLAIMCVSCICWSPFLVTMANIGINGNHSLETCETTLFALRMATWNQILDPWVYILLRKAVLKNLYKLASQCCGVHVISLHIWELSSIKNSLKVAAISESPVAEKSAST

SMILES | pKi [1] | pKi [2] | pKi [3] | pKi [4] | Ratio [5] | pKi [6] | pKi [7] | pKi [8] | pKi [9]
O=C(Nc1ccccc1)NS(=O)(=O)c1ccccc1-c1ccc(CN2C(=O)c3ccccc3CCc3ccccc32)cc1 | 4.80 | 5.34 | 4.68 | 4.72 |  |  |  |  | 
CCCCNC(=O)NS(=O)(=O)c1ccccc1-c1ccc(CN2C(=O)c3ccccc3CCc3ccccc32)cc1 | < 4.00 | 5.22 | 6.66 | < 4.00 |  |  |  |  | 
CN(C(=O)NCCc1ccccc1)S(=O)(=O)c1ccccc1-c1ccc(CN2C(=O)c3ccccc3CCc3ccccc32)cc1 | < 4.00 | < 4.00 | 6.44 | < 4.00 |  |  |  |  | 
O=C(COc1ccccc1)NS(=O)(=O)c1ccccc1-c1ccc(CN2C(=O)c3ccccc3CCc3ccccc32)cc1 | 4.66 | 5.33 | 6.85 | 5.15 |  |  |  |  | 
O=C(NCCc1cccs1)NS(=O)(=O)c1ccccc1-c1ccc(CN2C(=O)c3ccccc3CCc3ccccc32)cc1 | < 4.00 | 5.66 | 7.00 | < 4.00 |  |  |  |  | 
O=C(NCc1ccccc1)NS(=O)(=O)c1ccccc1-c1ccc(CN2C(=O)c3ccccc3CCc3ccccc32)cc1 | < 4.00 | 4.89 | 6.70 | < 4.00 |  |  |  |  | 
CO[C@@](C(=O)NS(=O)(=O)c1ccccc1-c1ccc(CN2C(=O)c3ccccc3CCc3ccccc32)cc1)(c1ccccc1)C(F)(F)F | 4.89 | 5.80 | 7.30 | 5.52 |  |  |  |  | 
O=C(NCCc1cccs1)NS(=O)(=O)c1ccccc1-c1ccc(CN2Cc3ccccc3CCc3ccccc32)cc1 |  |  | 5.55 |  |  |  |  |  | 
O=C(CCc1ccccc1)NS(=O)(=O)c1ccccc1-c1ccc(CN2C(=O)c3ccccc3CCc3ccccc32)cc1 | < 4.00 | 5.44 | 7.33 | 4.89 |  |  |  |  | 
CC(C)(C)NC(=O)NS(=O)(=O)c1ccccc1-c1ccc(CN2C(=O)c3ccccc3CCc3ccccc32)cc1 | < 4.00 | 5.92 | 6.11 | 5.33 | 1.7 |  |  |  | 
CC(C)(Cc1ccccc1)C(=O)NS(=O)(=O)c1ccccc1-c1ccc(CN2C(=O)c3ccccc3CCc3ccccc32)cc1 | < 4.00 | 4.80 | 7.74 | 5.62 |  | 5.89 | 4.68 | 5.96 | 5.40
O=C1c2ccccc2CCc2ccccc2N1Cc1ccc(-c2ccccc2S(=O)(=O)N(Cc2ccccc2)C(=O)NCCc2ccccc2)cc1 | < 4.00 | < 4.00 | 4.29 | < 4.00 |  |  |  |  | 
CO[C@](C(=O)NS(=O)(=O)c1ccccc1-c1ccc(CN2C(=O)c3ccccc3CCc3ccccc32)cc1)(c1ccccc1)C(F)(F)F | 4.96 | 5.89 | 7.92 | 5.40 |  | 5.42 | 4.89 | 5.82 | 5.70
O=C(NS(=O)(=O)c1ccccc1-c1ccc(CN2C(=O)c3ccccc3CCc3ccccc32)cc1)OCc1ccccc1 | 4.96 | 5.62 | 6.82 | 5.22 |  |  |  |  | 
O=C(Cc1ccccc1)NS(=O)(=O)c1ccccc1-c1ccc(CN2C(=O)c3ccccc3CCc3ccccc32)cc1 | 4.85 | 5.55 | 7.24 | < 4.00 |  |  |  |  | 
O=C(NCCc1ccccc1)NS(=O)(=O)c1ccccc1-c1ccc(CN2C(=O)c3ccccc3CCc3ccccc32)cc1 | < 4.00 | 4.29 | 6.92 | < 4.00 |  |  |  |  | 
CC(C(=O)NS(=O)(=O)c1ccccc1-c1ccc(CN2C(=O)c3ccccc3CCc3ccccc32)cc1)c1ccccc1 (centres undefined) | < 4.00 | 5.30 | 7.80 | 4.70 |  | 5.28 | 4.55 | 5.55 | 5.55
O=C(NCCCc1ccccc1)NS(=O)(=O)c1ccccc1-c1ccc(CN2C(=O)c3ccccc3CCc3ccccc32)cc1 | < 4.00 | < 4.00 | 6.40 | < 4.00 |  |  |  |  | 
O=C(NCCc1cccs1)NS(=O)(=O)c1ccccc1-c1ccc(Cn2c(=O)c3ccccc3c3ccccc32)cc1 |  |  | 5.92 |  |  |  |  |  | 
CN(CCc1ccccc1)C(=O)NS(=O)(=O)c1ccccc1-c1ccc(CN2C(=O)c3ccccc3CCc3ccccc32)cc1 | 4.64 | 5.30 | 7.77 | 5.96 |  | 5.21 | 4.28 | 5.68 | 5.54
O=C(NCCc1cccs1)NS(=O)(=O)c1ccccc1-c1ccc(CN2C(=O)c3ccccc3Oc3ccccc32)cc1 |  |  | 4.97 |  |  |  |  |  | 
CC(C)(C(=O)NS(=O)(=O)c1ccccc1-c1ccc(CN2C(=O)c3ccccc3CCc3ccccc32)cc1)c1ccccc1 | 4.64 | 5.40 | 8.00 | 5.30 |  | 5.30 | 4.68 | 5.52 | 5.62
C[C@H](NC(=O)NS(=O)(=O)c1ccccc1-c1ccc(CN2C(=O)c3ccccc3CCc3ccccc32)cc1)c1ccccc1 | 4.68 | 5.33 | 6.85 | 5.16 |  |  |  |  | 
